Values joined by “and” are separate entries in the source; they are usually repeats but may differ in a detail not shown here. Identical values can stand only once.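 Interpolation was linear, between the two tested concentrations surrounding the appropriate level; five concentrations were tested over 48 hours in 96-well plates. GI50 = concentration required for 50% inhibition of growth. TGI: concentration producing complete growth inhibition.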
What follows are molecules tested on UACC-257 melanoma (assay: DTP human tumour cell line panel, 48 h).
With `CN(C)c1ccc(/C=C\C2=[N+](C)c3ccccc3C2(C)C)cc1` the GI50 was 1500 nM and the TGI was greater than 31.2 µM.
In the case of `COc1cc2c(c3oc4c(O)cccc4c(=O)c13)CC(C(C)(O)CO)O2` (stereo not drawn), the TGI is reported as greater than 100 µM.
`CC(=O)OC1OC([C@@H]2c3cccc(O)c3C(=O)c3c(O)cc(C)cc32)C(O)C(O)C1O` (stereo partly drawn) gave a GI50 of 95.1 nM and a TGI of 1.33 µM.
For `C[N+](C)(C)CC(=O)N/N=C(/CC(=O)CC(C1=C(O)c2ccccc2OC1)c1ccccc1)C(=O)Nc1cccc(Cl)c1` (stereo not drawn), the TGI was greater than 100 µM.
Molecule `O=C1/C(=C/c2ccc(O)c(O)c2)CCC/C1=C\c1ccc(O)c(O)c1` has a TGI of 17.4 µM.
`COC(=O)/C=C1\S/C(=N\NC(=O)c2cc3ccc2/C=C\c2ccc(cc2)/C=C\3)N(c2ccccc2)C1=O` showed a GI50 of 5140 nM and a TGI greater than 100 µM.
`COC([CH2][Hg][n]1cnc2c1c(=O)n(C)c(=O)n2C)CN1C(=O)c2ccccc2S1(=O)=O` (stereo not drawn) gave a GI50 greater than 100000 nM and a TGI greater than 100 µM.
With `CN1CCCCC1CCN1c2ccccc2Sc2ccc(Cl)cc21` (stereo not drawn) the GI50 was 2450 nM and the TGI was 5.52 µM.
`C=C(C)C(OC)C(O)CC1(C)CC(O)CC(C)(C2CCC3OC(C4(C)CCC(Br)C(C)(C)O4)CCC3(C)O2)O1` (stereo not drawn) was tested, and the GI50 was 20200 nM and the TGI was 43 µM.
`COc1cc2c(cc1OCCCCN1CCN(CC(=O)Nc3ccc(Cl)cc3C(=O)c3ccccc3Cl)CC1)N=CC1CCCN1C2=O` (stereo not drawn) was tested, and the GI50 was 200 nM and the TGI was 0.575 µM.
`O=C(CCc1nc(=S)[nH][nH]1)Nc1ccc(Cl)c(Cl)c1` gave a TGI greater than 100 µM.
For `O=C(Nc1ccccc1)c1c(O)[nH]c(=S)[nH]c1=O`, the GI50 was 83100 nM and the TGI was 112 µM and > 250 µM.
Work on `OC1CSSC1Cn1cnc2c(Nc3ccc(OCc4cccc(F)c4)c(Cl)c3)ncnc21` (stereo not drawn) yielded a GI50 of 4090 nM and a TGI of 15.4 µM.
`C=CCOc1ccc2c(C)cc(=O)oc2c1C` showed a TGI greater than 100 µM.
`Nc1c(C(=O)c2cccc(CCS(N)(=O)=O)c2)cnn1-c1ccc(F)cc1` gave a GI50 greater than 25000 nM and a TGI greater than 25 µM.
`COc1cc2cc(OC)c3cc4c(cc3c2c(OC)c1OC)OCO4` showed a TGI greater than 100 µM.
For `CCCCCCCCCCCCCC(=O)OC(/C=C/C(C)C)C(O)C(O)C(OC)C(=O)NC1CCCCN(C)C1=O` (stereo not drawn), the GI50 was greater than 49000 nM and the TGI was 18.3 µM and > 49 µM.
`C[C@@H](Oc1cc(-n2cnc3ccc(CN4CCN(C)CC4)cc32)sc1C(N)=O)c1ccccc1C(F)(F)F` gave a GI50 of 2030 nM and a TGI greater than 10 µM.
With `CCN(CC)CCSc1c2ccccc2nc2cc(NCC(=O)Nc3ccccc3-c3ccccc3NC(=O)CNc3ccc4c(SCCN(CC)CC)c5ccccc5nc4c3)ccc12` the TGI was greater than 100 µM.
For `O=C(CCNC12CC3CC(CC(C3)C1)C2)c1ccccc1`, the TGI was 49.4 µM.
`COc1cccc(-c2cc(-c3cccc(NS(C)(=O)=O)c3)nc(N)c2C#N)c1O` showed a GI50 of 471 nM and a TGI greater than 100 µM.
`Cc1ccsc1C(=S)Nc1ccc(Cl)c(/C=N/OC(C)(C)C)c1` gave a TGI of 69.1 µM.
In the case of `NC(=O)NO.O.O.O.O.O.O.O.O.O.O.O.[Ge].[Ge].[Ge].[Ge].[Ge].[O]=[Ge].[O]=[Ge].[O]=[Ge].[O]=[Ge].[O]=[Ge][OH]`, the TGI is reported as greater than 100 µM.
`CN(C)C(=S)N=C(Nc1ccccc1)Nc1ccccc1` was tested, and the TGI was greater than 100 µM.
Work on `NC(N)=NS(=O)(=O)c1ccc(Nc2c3ccccc3nc3c(C(=O)NCCO)cccc23)cc1` yielded a GI50 of 39400 nM.
`COc1cccc(C2c3cc4c(cc3OC(C)(N3CCCC3)C2C)OCO4)c1O` (stereo not drawn) was tested, and the TGI was greater than 100 µM.
`O=C1NC(=NCCc2cccc(F)c2)S/C1=C\c1ccc2ncccc2c1` showed a GI50 of 9610 nM and a TGI greater than 25 µM.
Work on `COc1cc(/C=N\NC(=O)CN2CCN(c3cc4c(cc3F)c(=O)c(C(=O)N/N=C/c3cc(OC)c(OC)c(OC)c3)cn4C3CC3)CC2)cc(OC)c1OC` yielded a GI50 of 360 nM.
Molecule `O=C(O)CCC(NC(=O)c1ccc(Nc2nc3ccccc3nc2-c2cccs2)cc1)C(=O)O` (stereo not drawn) has a TGI greater than 100 µM.
In the case of `Cc1ccc(NC(=O)Nc2ccc(-c3cccnc3)cc2N2CCC(CO)CC2)cc1`, the GI50 is reported as 2140 nM and the TGI is reported as 9.61 µM.

Each molecule was assayed on SF-539 CNS (assay: DTP human tumour cell line panel, 48 h).
For `CN(C)c1ccc(/C=C\C2=[N+](C)c3ccccc3C2(C)C)cc1`, the GI50 was 1120 nM and the TGI was 16.7 µM.
For `COc1cc2c(c3oc4c(O)cccc4c(=O)c13)CC(C(C)(O)CO)O2` (stereo not drawn), the TGI was greater than 100 µM.
Work on `CC(=O)OC1OC([C@@H]2c3cccc(O)c3C(=O)c3c(O)cc(C)cc32)C(O)C(O)C1O` (stereo partly drawn) yielded a GI50 of 41.9 nM and a TGI of 1.47 µM.
With `C[N+](C)(C)CC(=O)N/N=C(/CC(=O)CC(C1=C(O)c2ccccc2OC1)c1ccccc1)C(=O)Nc1cccc(Cl)c1` (stereo not drawn) the TGI was greater than 100 µM.
Molecule `O=C1/C(=C/c2ccc(O)c(O)c2)CCC/C1=C\c1ccc(O)c(O)c1` has a TGI of 8.99 µM.
For `COC(=O)/C=C1\S/C(=N\NC(=O)c2cc3ccc2/C=C\c2ccc(cc2)/C=C\3)N(c2ccccc2)C1=O`, the GI50 was 1790 nM and the TGI was 3.32 µM.
`COC([CH2][Hg][n]1cnc2c1c(=O)n(C)c(=O)n2C)CN1C(=O)c2ccccc2S1(=O)=O` (stereo not drawn) showed a GI50 greater than 100000 nM and a TGI greater than 100 µM.
In the case of `CN1CCCCC1CCN1c2ccccc2Sc2ccc(Cl)cc21` (stereo not drawn), the GI50 is reported as 2290 nM and the TGI is reported as 5.42 µM.
With `C=C(C)C(OC)C(O)CC1(C)CC(O)CC(C)(C2CCC3OC(C4(C)CCC(Br)C(C)(C)O4)CCC3(C)O2)O1` (stereo not drawn) the GI50 was 18900 nM and the TGI was 36.5 µM.
Work on `COc1cc2c(cc1OCCCCN1CCN(CC(=O)Nc3ccc(Cl)cc3C(=O)c3ccccc3Cl)CC1)N=CC1CCCN1C2=O` (stereo not drawn) yielded a GI50 of 236 nM and a TGI of 0.501 µM.
With `O=C(CCc1nc(=S)[nH][nH]1)Nc1ccc(Cl)c(Cl)c1` the TGI was greater than 100 µM.
For `O=C(Nc1ccccc1)c1c(O)[nH]c(=S)[nH]c1=O`, the GI50 was 102000 nM and the TGI was 87.1 µM and > 250 µM.
Molecule `OC1CSSC1Cn1cnc2c(Nc3ccc(OCc4cccc(F)c4)c(Cl)c3)ncnc21` (stereo not drawn) has a GI50 of 1890 nM and a TGI of 7.67 µM.
With `C=CCOc1ccc2c(C)cc(=O)oc2c1C` the TGI was greater than 100 µM.
For `Nc1c(C(=O)c2cccc(CCS(N)(=O)=O)c2)cnn1-c1ccc(F)cc1`, the GI50 was greater than 25000 nM and the TGI was greater than 25 µM.
In the case of `COc1cc2cc(OC)c3cc4c(cc3c2c(OC)c1OC)OCO4`, the TGI is reported as greater than 55.4 µM.
With `CCCCCCCCCCCCCC(=O)OC(/C=C/C(C)C)C(O)C(O)C(OC)C(=O)NC1CCCCN(C)C1=O` (stereo not drawn) the TGI was 7.18 µM and > 49 µM.
With `C[C@@H](Oc1cc(-n2cnc3ccc(CN4CCN(C)CC4)cc32)sc1C(N)=O)c1ccccc1C(F)(F)F` the GI50 was 36.9 nM and 30.2 nM and the TGI was 2.09 µM.
`CCN(CC)CCSc1c2ccccc2nc2cc(NCC(=O)Nc3ccccc3-c3ccccc3NC(=O)CNc3ccc4c(SCCN(CC)CC)c5ccccc5nc4c3)ccc12` showed a TGI greater than 100 µM.
For `O=C(CCNC12CC3CC(CC(C3)C1)C2)c1ccccc1`, the TGI was 40.3 µM.
Work on `COc1cccc(-c2cc(-c3cccc(NS(C)(=O)=O)c3)nc(N)c2C#N)c1O` yielded a GI50 of 154 nM and a TGI greater than 100 µM.
In the case of `Cc1ccsc1C(=S)Nc1ccc(Cl)c(/C=N/OC(C)(C)C)c1`, the TGI is reported as greater than 100 µM.
For `NC(=O)NO.O.O.O.O.O.O.O.O.O.O.O.[Ge].[Ge].[Ge].[Ge].[Ge].[O]=[Ge].[O]=[Ge].[O]=[Ge].[O]=[Ge].[O]=[Ge][OH]`, the TGI was greater than 100 µM.
Work on `CN(C)C(=S)N=C(Nc1ccccc1)Nc1ccccc1` yielded a TGI greater than 100 µM.
`NC(N)=NS(=O)(=O)c1ccc(Nc2c3ccccc3nc3c(C(=O)NCCO)cccc23)cc1` gave a GI50 of 29500 nM.
Molecule `COc1cccc(C2c3cc4c(cc3OC(C)(N3CCCC3)C2C)OCO4)c1O` (stereo not drawn) has a TGI of 21.8 µM.
Work on `O=C1NC(=NCCc2cccc(F)c2)S/C1=C\c1ccc2ncccc2c1` yielded a GI50 of 1590 nM and a TGI greater than 25 µM.
Molecule `COc1cc(/C=N\NC(=O)CN2CCN(c3cc4c(cc3F)c(=O)c(C(=O)N/N=C/c3cc(OC)c(OC)c(OC)c3)cn4C3CC3)CC2)cc(OC)c1OC` has a GI50 of 212 nM and a TGI of 0.522 µM.
For `O=C(O)CCC(NC(=O)c1ccc(Nc2nc3ccccc3nc2-c2cccs2)cc1)C(=O)O` (stereo not drawn), the TGI was greater than 100 µM.
`Cc1ccc(NC(=O)Nc2ccc(-c3cccnc3)cc2N2CCC(CO)CC2)cc1` showed a GI50 of 1680 nM and a TGI of 4.67 µM.

Each molecule was assayed on SR leukemia (assay: DTP human tumour cell line panel, 48 h).
`CN(C)c1ccc(/C=C\C2=[N+](C)c3ccccc3C2(C)C)cc1` showed a GI50 of 28.5 µM and a TGI greater than 100 µM.
Molecule `COc1cc2c(c3oc4c(O)cccc4c(=O)c13)CC(C(C)(O)CO)O2` (stereo not drawn) has a TGI greater than 100 µM.
For `CC(=O)OC1OC([C@@H]2c3cccc(O)c3C(=O)c3c(O)cc(C)cc32)C(O)C(O)C1O` (stereo partly drawn), the GI50 was 0.032 µM and the TGI was 0.0859 µM.
`C[N+](C)(C)CC(=O)N/N=C(/CC(=O)CC(C1=C(O)c2ccccc2OC1)c1ccccc1)C(=O)Nc1cccc(Cl)c1` (stereo not drawn) showed a TGI greater than 100 µM.
`O=C1/C(=C/c2ccc(O)c(O)c2)CCC/C1=C\c1ccc(O)c(O)c1` showed a TGI greater than 89.8 µM.
`COC(=O)/C=C1\S/C(=N\NC(=O)c2cc3ccc2/C=C\c2ccc(cc2)/C=C\3)N(c2ccccc2)C1=O` was tested, and the GI50 was 2.46 µM and the TGI was greater than 100 µM.
`COC([CH2][Hg][n]1cnc2c1c(=O)n(C)c(=O)n2C)CN1C(=O)c2ccccc2S1(=O)=O` (stereo not drawn) showed a GI50 of 77.2 µM and a TGI greater than 100 µM.
Molecule `CN1CCCCC1CCN1c2ccccc2Sc2ccc(Cl)cc21` (stereo not drawn) has a GI50 of 3.2 µM.
`C=C(C)C(OC)C(O)CC1(C)CC(O)CC(C)(C2CCC3OC(C4(C)CCC(Br)C(C)(C)O4)CCC3(C)O2)O1` (stereo not drawn) showed a GI50 of 34.9 µM and a TGI greater than 100 µM.
In the case of `COc1cc2c(cc1OCCCCN1CCN(CC(=O)Nc3ccc(Cl)cc3C(=O)c3ccccc3Cl)CC1)N=CC1CCCN1C2=O` (stereo not drawn), the GI50 is reported as 0.138 µM and the TGI is reported as 0.456 µM.
`O=C(CCc1nc(=S)[nH][nH]1)Nc1ccc(Cl)c(Cl)c1` gave a TGI greater than 100 µM.
`O=C(Nc1ccccc1)c1c(O)[nH]c(=S)[nH]c1=O` gave a TGI of 53.8 µM.
